Measurements from patent US9422238B2, “ICMT inhibitors” (National University of Singapore, priority 2012, dated 2016).

Columns and labels:
Type in all cases: cell-based, human
PC3 cells [1] = test: Colony formation (clonogenic) assay; details: PC3, 2 weeks; 8-12 1-3 μM, cysmethynil 15-25 μM
Procedure: A flask ([…]) of PC3 cells in media (DMEM high glucose, 10% fetal bovine serum, 50 μg/mL penicillin, 50 μg/mL streptomycin) was grown to 80-90% confluency. The media was removed by pipetting and the cell layer washed with 1×PBS (5 mL). An aliquot of trypsin (1 mL, 0.25% trypsin-EDTA (1×)-phenol red, Invitrogen) was added to the plate, tapped gently for even distribution and incubated at 37° C., 5% CO2 for 1 min. The plate was quickly viewed under the microscope to confirm that cells have rounded up. Media (10 mL) was then added and the cell suspension transferred to a falcon tube (15 mL). An aliquot (10 μl) was transferred to a hemocytometer for cell counting. The suspension was then diluted to give the desired seeding concentration of 1000 cells per well in a 6-well plate. After seeding, the plate was gently tapped to help cells spread out within the wells. Plates were then incubated for 2 h (37° C., 5% CO2) for cell attachment to take place. The media was removed with a pipette, the cell layer in the well washed with PBS and replaced by a solution of the test compound in 2 mL of DMEM (containing 5% FBS, instead of 10% FBS). Test compounds were prepared in DMSO stock solutions. The final concentration of DMSO in the well was 0.05% v/v. Control plates were also prepared in which no test compound was added but with DMSO maintained at 0.05%. […]

HepG2 cells = test: Western blot of autophagy marker LC3-II; details: HepG2, 24 h and 48 h
Procedure: (§1) MDA MB231, PC3 and HepG2 cells were seeded at 65 000 cells/mL per well in […] with DMEM (high glucose, supplemented with 10% FBS, 50 μg/mL penicillin, 50 μg/mL streptomycin) as media. Plates were incubated (24 h, 37° C., 5% CO2) for cells to attach and then treated with test compound (prepared in same media but with 5% FBS) for 24 h or 48 h. Final volume of DMSO per well was kept at 0.05% v/v. After the specified time, the supernatant was removed from the well by pipetting, the cell pellet was trypsinized, and pelleted by centrifugation (150 g, 5 min) and stored in −20° C. Samples were thawed and cells lysed by adding RIPA (radioimmunoprecipitation assay lysis buffer, Thermo Scientific, Rockland, Ill.) (50 μL), kept in ice for 30 min and sonicated for 1 min in an ice bath. Samples were centrifuged (13 000 g, 5 min, 4° C.) to remove cell debris. The supernatant was stored as aliquots at −80° C. and used when required. At the time of use, samples were thawed and protein content determined using the BCA® Protein Assay reagent (Thermo Scientific, Rockland, Ill.). The volume of the lysate was adjusted with deionized water to normalize protein content to 10-20 μg per mL. To this was added Laemmli buffer (4×) and heated to 100° C. for 5 minutes to denature the protein. The samples were resolved by 12% SDS-PAGE gel electrophoresis at 100V for 90 min. The resolved proteins were transferred to polyvinylidene difluoride (PVDF) membranes (Bio-Rad, Singapore) using transfer buffer at 100V for 120 min. Membranes were then treated with 5% blocking buffer (5% non-fat milk and 0.1% Tween-20 in PBS) and probed with the specific antibody (GAPDH, LC3) by incubating the membranes in blocking buffer containing the antibody at 4° C. overnight. After washing the membranes in PBS containing 0.1% Tween 20 (PBST), the membranes were probed with secondary antibodies (horseradish peroxidase anti mouse IgG, Pierce, USA) in blocking buffer at room temperature for 1 h. They were then washed with PBST and developed using an enhanced chemiluminescence procedure (Amersham ECL Advanced Western Blotting Detection Kit, GE, Healthcare, UK). Immunoblots were viewed using the ImageQuant® RT-ECL imager (GE Healthcare) and the image captured with the ImageQuant® TL software. Antibodies were obtained from the following sources: GAPDH (Cell signaling technology, USA), LC3 (Abgent, USA). Test compound was evaluated at 3 concentrations with 2 repeats for each concentration.

MDA MB 231 cells = test: Western blot of autophagy marker LC3-II; details: MDA MB 231, 24 h and 48 h
Procedure: as §1

PC3 cells [2] = test: Western blot of autophagy marker LC3-II; details: PC3, 24 h and 48 h
Procedure: as §1

Which colony formation (PC3 cells [1]) does the source give for `CCCCCCCCn1cc(CN(CC)CC)c2cc(-c3cnc(N)nc3)ccc21` [Compound 8-12, 5-(3-Diethylaminomethyl-1-octyl-1H-indol-5-yl)-pyrimidin-2-ylamine] here?
Its colony formation is “colony formation was evident only at the lowest concentration of 1 μM and not at higher concentrations (1.5 to 3 μM)”.

And the “LC3-II content (immunoblot)” value (HepG2 cells)?
Its value is “LC3-II bands were detected in HepG2 cells treated only with 0.5 μM but not 0.25 μM”.

And the “LC3-II content (immunoblot)” value (MDA MB 231 cells)?
Its value is “increased the content of LC3-II”.

What about the “LC3-II content (immunoblot)” value (PC3 cells [2]) of the same compound?
Its value is “increased the content of LC3-II”.

For `CCCCCCCCn1cc(CC(N)=O)c2cc(-c3cccc(C)c3)ccc21` [Cysmethynil, 2-[5-(3-methylphenyl)-1-octyl-1H-indolo-3-yl]acetamide, reference compound], which colony formation (PC3 cells [1]) is on record?
The colony formation was “Colony formation was observed with 15 μM cysmethynil but not at higher concentrations (17.5 to 25 μM)”.

And the “LC3-II content (immunoblot)” value (HepG2 cells)?
The value was “LC3II accumulation was evident after 48 hours but not 24 h”.

And the “LC3-II content (immunoblot)” value (MDA MB 231 cells)?
Its value is “LC3-II accumulation was evident in MDA MB 231 cells treated with cysmethynil at 20 and 22.5 μM, but not at 17.5 μM”.

And the “LC3-II content (immunoblot)” value (PC3 cells [2])?
The value was “negligible LC3II were observed”.
